From ChEMBL document CHEMBL3804817, “Development of novel bis-naphthalimide derivatives and their anticancer properties” (Medchemcomm, 2016) come the findings set out here.

A short description of data set [1]: Cytotoxicity against human SGC7901 cells after 48 hrs by MTT assay. In kind it is functional, cell-based. To be noted: SGC-7901, 48 h.
Another data set has as its system A549. The data set can be described thus: Cytotoxicity against human A549 cells after 48 hrs by MTT assay. In kind it is functional, cell-based. To be noted: A549, 48 h.
In a further data set the test system is MCF7. In words: Cytotoxicity against human MCF7 cells after 48 hrs by MTT assay. It counts as functional, cell-based. To be noted: MCF7, 48 h.
In data set [2] the test system is HeLa. In words: Cytotoxicity against human HeLa cells after 48 hrs by MTT assay. It counts as functional, cell-based.
In data set [3] the test system is Calf thymus DNA. In words: Induction of DNA intercalation of calf thymus DNA assessed as increase in intensity of absorption using > 6 x 10^-5 M calf thymus DNA by UV spectrophotometry. In kind it is nucleic-acid assay. To be noted: Bos taurus.
Data set [4] has as its system Calf thymus DNA. In words: Induction of DNA intercalation of calf thymus DNA measured at 320 to 520 nm at 2 x 10^-5 M by circular dichroism spectroscopy. In kind it is nucleic-acid assay. To be noted: Bos taurus.
Data set [5] concerns Mus musculus. In words: Toxicity in Balb/c mouse assessed as decrease in number of WBC at 5 to 20 mg/kg, iv measured after 24 to 96 hrs. It counts as organism-based. To be noted: in vivo.
The test system of data set [6] is Mus musculus. The data set can be described thus: Toxicity in Balb/c mouse assessed as change in RBC at 5 to 20 mg/kg, iv measured after 24 to 96 hrs. It counts as organism-based. As to conditions: in vivo.
Data set [7] relates to HeLa. In words: Induction of apoptosis in human HeLa cells assessed as early apoptotic cells at 1 uM by Annexin V-FITC/propidium iodide staining-based flow cytometry (reference value: 0.05%). In kind it is functional.
The subject of data set [8] is Mus musculus. In words: Cardiotoxicity in Balb/c mouse assessed as increase in CK level at 5 to 20 mg/kg, iv measured after 24 hrs. It counts as toxicity, organism-based. As to conditions: in vivo.
For data set [9], the system named is Calf thymus DNA. In words: Induction of DNA intercalation of calf thymus DNA assessed as reduction in intensity of absorption using 0 to 6 x 10^-5 M calf thymus DNA by UV spectrophotometry. As to conditions: Bos taurus. It counts as nucleic-acid assay.
In data set [10] the test system is HeLa. The data set can be described thus: Induction of apoptosis in human HeLa cells assessed as early apoptotic cells at 10 uM by Annexin V-FITC/propidium iodide staining-based flow cytometry (reference value: 0.05%). It counts as functional.
The subject of data set [11] is Calf thymus DNA. The data set can be described thus: Induction of DNA intercalation of calf thymus DNA assessed as binding constant by fluorescence spectrophotometry. In kind it is nucleic-acid assay. As to conditions: Bos taurus.
Data set [12] concerns Mus musculus. In words: Cardiotoxicity in Balb/c mouse assessed as increase in AST level at 5 to 20 mg/kg, iv measured after 24 hrs. It counts as toxicity, organism-based. As to conditions: in vivo.
The test system of data set [13] is Calf thymus DNA. In words: Induction of DNA intercalation of calf thymus DNA assessed as increase in fluorescence intensity by fluorescence spectrophotometry. It counts as nucleic-acid assay. As to conditions: Bos taurus.
The subject of data set [14] is Mus musculus. In words: Cardiotoxicity in Balb/c mouse assessed as increase in LDH level at 5 to 20 mg/kg, iv measured after 24 hrs. To be noted: in vivo. It counts as toxicity, organism-based.
Data set [15] has as its system HeLa. The data set can be described thus: Induction of apoptosis in human HeLa cells assessed as early apoptotic cells at 2.5 uM by Annexin V-FITC/propidium iodide staining-based flow cytometry (reference value: 0.05%). In kind it is functional.
Data set [16] has as its system HeLa. In words: Cell cycle arrest in human HeLa cells assessed as accumulation at S phase at 1 to 10 uM after 48 hrs by flow cytometry. In kind it is functional.
In data set [17] the test system is HeLa. The data set can be described thus: Induction of apoptosis in human HeLa cells assessed as late apoptotic cells at 10 uM by Annexin V-FITC/propidium iodide staining-based flow cytometry (reference value: 0.02%). It counts as functional.
In data set [18] the test system is HeLa. The data set can be described thus: Induction of apoptosis in human HeLa cells assessed as early apoptotic cells at 5 uM by Annexin V-FITC/propidium iodide staining-based flow cytometry (reference value: 0.05%). It counts as functional.
Data set [19] has as its system Calf thymus DNA. In words: Induction of DNA intercalation of calf thymus DNA assessed as hypsochromic shift by fluorescence spectrophotometry (reference value: 530 nanometer). It counts as nucleic-acid assay. To be noted: Bos taurus.
The test system of data set [20] is Calf thymus DNA. The data set can be described thus: Induction of DNA intercalation of calf thymus DNA assessed as increase in intensity of positive band at 275 nm at 2 x 10^-5 M by circular dichroism spectroscopy. It counts as nucleic-acid assay. As to conditions: Bos taurus.
Data set [21] relates to HeLa. The data set can be described thus: Induction of apoptosis in human HeLa cells assessed as late apoptotic cells at 2.5 uM by Annexin V-FITC/propidium iodide staining-based flow cytometry (reference value: 0.02%). In kind it is functional.
Data set [22] has as its system HeLa. In words: Induction of apoptosis in human HeLa cells assessed as late apoptotic cells at 1 uM by Annexin V-FITC/propidium iodide staining-based flow cytometry (reference value: 0.02%). In kind it is functional.
The subject of data set [23] is HeLa. In words: Induction of apoptosis in human HeLa cells assessed as late apoptotic cells at 5 uM by Annexin V-FITC/propidium iodide staining-based flow cytometry (reference value: 0.02%). In kind it is functional.
The subject of data set [24] is Calf thymus DNA. In words: Induction of DNA intercalation of calf thymus DNA at 1 x 10^-5 M measured at 530 nm by fluorescence spectrophotometry. It counts as nucleic-acid assay. To be noted: Bos taurus.
The subject of data set [25] is Calf thymus DNA. In words: Induction of DNA intercalation of calf thymus DNA assessed as change in melting temperature at 5 x 10^-6 M by thermal denaturation analysis. In kind it is nucleic-acid assay. As to conditions: Bos taurus.
Data set [26] relates to Calf thymus DNA. In words: Induction of DNA intercalation of calf thymus DNA assessed as increase in intensity of negative band at 245 nm at 2 x 10^-5 M by circular dichroism spectroscopy. It counts as nucleic-acid assay. As to conditions: Bos taurus.
For data set [27], the system named is HeLa. In words: Induction of lysosome membrane permeabilization in human HeLa cells by […] (reference value: 1.69%). It counts as functional.
For data set [28], the system named is HeLa. The data set can be described thus: Cell cycle arrest in human HeLa cells assessed as accumulation at G1/G0 phase at 1 to 10 uM after 48 hrs by flow cytometry. It counts as functional.
For data set [29], the system named is HeLa. In words: Binding affinity to DNA in human HeLa cells at 2 uM after 12 hrs by confocal microscopy. In kind it is cell-based.
Data set [30] relates to Mus musculus. The data set can be described thus: Toxicity in Balb/c mouse assessed as increase in number of platelets at 5 to 20 mg/kg, iv measured after 24 to 96 hrs. To be noted: in vivo. It counts as organism-based.
Data set [31] deals with HeLa. In words: Cell cycle arrest in human HeLa cells assessed as accumulation at G2/M phase at 1 to 10 uM after 48 hrs by flow cytometry. In kind it is functional.
Data set [32] concerns HeLa. In words: Cell cycle arrest in human HeLa cells assessed as increase in accumulation at S phase by flow cytometry. It counts as functional, cell-based.
The subject of data set [33] is HeLa. In words: Cell cycle arrest in human HeLa cells assessed as decrease in accumulation at G0/G1 phase phase by flow cytometry. It counts as functional, cell-based.

Molecules are shown by their SMILES. Calls of active or inactive are those of the source. No cut-off for these calls is given here. Bounds are passed on as bounds.

In the case of `CN(CCCN1C(=O)c2cccc3c(N4CCC(CCO)CC4)ccc(c23)C1=O)CCCN1C(=O)c2cccc3c(N4CCC(CCO)CC4)ccc(c23)C1=O`, the IC50 in data set [1] is 3.63 µM; with A549 it was 3.2 µM; with MCF7 it was above 50 µM; with HeLa [2], above 50 µM.
With `CN(CCCN1C(=O)c2cccc3c(N4CC[C@H](O)C4)ccc(c23)C1=O)CCCN1C(=O)c2cccc3c(N4CC[C@H](O)C4)ccc(c23)C1=O`, the IC50 in data set [1] came out at 2.47 µM; with A549, 0.6 µM; with MCF7, 14 µM; in the data set on HeLa [2], 1.05 µM.
Turning to `CN(CCCN1C(=O)c2cccc3c(N4CCC[C@@H]4CO)ccc(c23)C1=O)CCCN1C(=O)c2cccc3c(N4CCC[C@@H]4CO)ccc(c23)C1=O`, the IC50 in [1] was 4.46 µM; in the data set on A549, 4.71 µM; in the data set with MCF7 it was above 50 µM; in the data set on HeLa [2] it was above 50 µM.
For the compound `CN(CCCN1C(=O)c2cccc3c(N4CCN(CCO)CC4)ccc(c23)C1=O)CCCN1C(=O)c2cccc3c(N4CCN(CCO)CC4)ccc(c23)C1=O`, the outcome in the data set with Calf thymus DNA [3], in the data set with Calf thymus DNA [4], in the data set with Calf thymus DNA [9], in the data set on Calf thymus DNA [13], with Calf thymus DNA [20] and in the data set on Calf thymus DNA [24] was Active. Further, the result with Calf thymus DNA [26] and in the data set with HeLa [29] was Active. Also, the Activity result was “Non-toxic” in the data set on Mus musculus [5]; “Non-toxic” in the data set with Mus musculus [6]; 11.72% with HeLa [7]; “Non-toxic” with Mus musculus [8]; 41.51% with HeLa [10]; “Non-toxic” in the data set with Mus musculus [12]. For the same compound, the Activity entry in the data set on Mus musculus [14] is “Non-toxic”; in the data set with HeLa [15], 15.9%; in the data set with HeLa [16], 29.79%; in the data set with HeLa [17], 51.22%; with HeLa [18] it was 16.41%; in the data set on Calf thymus DNA [19] it was 520 nm. The Activity in the data set on HeLa [21] was 3.21%; in the data set on HeLa [22], 2.09%; in the data set with HeLa [23] it was 10.4%; in the data set on HeLa [27] it was 99.65%; with HeLa [28], 57.79%; in the data set with Mus musculus [30] it was “Non-toxic”. Further, in the data set with HeLa [31], the Activity amounted to 3.1%. In addition, the IC50 stood at 0.88 µM in data set [1], 1.21 µM in the data set on A549, 2.94 µM in the data set with MCF7 and 2.31 µM with HeLa [2]. Besides, in the data set with Calf thymus DNA [11], the K came to 1.2 ×10⁵ /M. Besides, the ΔTm in the data set on Calf thymus DNA [25] was determined as 8 °C.
Take `CN(C)CCN1C(=O)c2cccc3cc(N)cc(c23)C1=O` [AMONAFIDE]: in the data set on HeLa [32], the Activity result was “Dose-dependent effect”. In the data set with HeLa [33], the inhibition entry is “Dose-dependent effect”. Moreover, the IC50 turned out to be 5.32 µM in data set [1], 1.59 µM in the data set with A549, 8.02 µM with MCF7 and 4.36 µM in the data set with HeLa [2].
Turning to `CN(CCCN1C(=O)c2cccc3c(N4CCC[C@H]4CO)ccc(c23)C1=O)CCCN1C(=O)c2cccc3c(N4CCC[C@H]4CO)ccc(c23)C1=O`, the IC50 in data set [1] is 2.3 µM; in the data set on A549 it was 3.05 µM; in the data set with MCF7 it was 9.07 µM; in the data set with HeLa [2] it was above 50 µM.
The matching figures for `CN(CCCN1C(=O)c2cccc3c(N4CC[C@@H](O)C4)ccc(c23)C1=O)CCCN1C(=O)c2cccc3c(N4CC[C@@H](O)C4)ccc(c23)C1=O`: 23.2 µM, 1.59 µM, 32.9 µM and 3.65 µM.
